How the values were obtained:
[1] = TLC analysis of stability after purification; format: physicochemical; settings: 24 hours after purification, in sodium ascorbate aqueous solution (final concentration 1%)
Experimental: The crude product solution (1 μL) was analyzed by thin-layer chromatography (TLC). The sample was spotted on a thin-layer plate (silica gel 60F254), and a mixed solvent of acetonitrile/water (2/1) was used as a developing solvent. The thin-layer plate was exposed to an imaging plate (BAS IP MS 2025E, GE Healthcare) for about 15 min, and then analyzed by a bioimage analyzer (Tyhoon™ FLA-7000, Cytiva). The results are shown in FIG. 2. ^211At-AAMT-OMe in the crude product solution was detected at Rf 0.80, and the radiochemical yield (RCY) was 81.3%.
(§1) The crude product solution was injected into an HLB column (Oasis, WAT-186005125) equilibrated with sterile distilled water (1 mL) to capture the target product in the cartridge, and sterile distilled water was passed through the cartridge to elute impurities. Next, 30% ethanol solution (500 μL) was passed through the cartridge to elute the target product into sodium ascorbate aqueous solution (500 μL, final concentration 1%), thus obtaining the purified product. The radiochemical yield and radiochemical purity of the purified product were 81% and 98%, respectively.
Before purification, immediately after production, 3 hours after production, and 24 hours after production, ^211At-AAMT-OMe was analyzed by thin-layer chromatography (TLC) in the same manner as described above.
as §1, with “product. This purified product was analyzed by thin-layer chromatography (TLC) in the same manner as described above.” for “product.”, “79.6%” for “81%”, “99.9%,” for “98%,”
24 hours after production, (R)-^211At-AAMT-OMe was analyzed by thin-layer chromatography (TLC) in the same manner as described above.
as §1, with “product. This purified product was analyzed by thin-layer chromatography (TLC) in the same manner as described above.” for “product.”, “75.9%” for “81%”, “99.27%,” for “98%,”
24 hours after production, ^211At-AAMT-OEt was analyzed by thin-layer chromatography (TLC) in the same manner as described above.
The crude product solution was injected into an HLB column (Oasis, WAT-186005125) equilibrated with sterile distilled water (1 mL) to capture the target product in the cartridge, and sterile distilled water was passed through the cartridge to elute impurities. […] This purified product was analyzed by thin-layer chromatography (TLC) in the same manner as described above. […]
24 hours after production, ^211At-AAMT-OPr was analyzed by thin-layer chromatography (TLC) in the same manner as described above. […]

HEK293-hLAT1 = HEK293-hLAT1 (Homo sapiens, UniProt Q01650); test: Cellular uptake test (Using HEK293); format: cell-based; settings: inhibitor added 15 minutes before; BCH 20 mM or unlabeled AMT 1 μg/mL
Experimental: • Cells to be Used: HEK293-Mock, HEK293-hLAT1, HEK293-hLAT2 (HEK293: Human Embryonic Kidney cells 293) • Culture medium to be used: E-MEM (containing 10% FBS, 1% P/S, 1% NEAA)
(§2) Two days before a test day, a cell suspension was prepared in such a manner that the concentration of predetermined cells was 1×10^5 cells/mL. The cell suspension was seeded in a 24-well multiculture plate at a volume of 0.5 mL per well. On the day of the test, cultures were confirmed to be subconfluent (which refers to a state where 70-80% of the well is covered in density). The cells were washed twice with warmed PBS(-) Buffer (166-23555, FUJIFILM Wako Pure Chemical Corporation), the culture medium was replaced with HBSS(-) Buffer (085-09355, FUJIFILM Wako Pure Chemical Corporation), and the plate was left to stand in an incubator (MINIcell-35, WakenBtech Co., Ltd) until an RI addition test.
(§3) ^211At-AAMT-OMe or ^211At-AAMT was added to the prepared cells at 10 μL/well. BCH (LAT1 inhibitor, 20 mM) or unlabeled AMT (α-methyl tyrosine, 1 μg/mL) was previously (15 minutes before) added ([…]). The cells were cultured (CO2 5%, 37 °C), and after 30 minutes, the liquid was removed by suction using an aspirator. The cells were washed twice with PBS(-). The cells were lysed by adding 0.1N NaOH to obtain a lysate, and the radioactivity of the lysate was measured using a γ counter. After the radioactivity measurement, the lysate was loaded into a 96-well plate at a volume of 10 μL per well, the protein amount was measured by the BCA method, and the number of cells was corrected based on the protein amount. Absorbance was measured by MultiScanFC (Thermo Fisher). The uptake level of ^211At-AAMT-OMe or ^211At-AAMT into the cells (number of radioactivity counts/protein amount) was calculated.

[2] = system: CDDP-resistant A549 (A549 CDDP-r); test: Cell viability of CDDP-resistant A549 (A549 CDDP-r) with CDDP; format: cell-based, human; settings: CDDP 100 μg/mL
Experimental: Cisplatin (CDDP) was added to a human lung cancer cell line, A549 at an initial concentration of 1 μg/mL. After 3 days, dead cells were removed, and CDDP was again added. Cells that grew like A549 even in the presence of CDDP were isolated and maintained for 3 months while gradually increasing the concentration of CDDP in a culture medium.

[3] = Measurement of accumulated amounts of 211At-labeled compounds in PANC1 tumor-bearing mice; format: in vivo, human (PANC1) in Balb/c-nu/nu mice; settings: tumor, iv, 0.1 MBq/animal, 0.1 MBq/0.2 mL per mouse, tail vein, read-out: tumor accumulation; for tissue uptake at 10 min: 10 minutes after administration; for tissue uptake at 1 h: 1 hour after administration
Experimental: (§4) Radiation doses before and after the administration were measured, and a difference between them was defined as an injected dose (ID). Ten minutes and one hour after administration, the mice were anesthetized by isoflurane inhalation, the tumors were isolated by autopsy in chronological order, and their radiation doses and weights were measured using a gamma counter (2480 Wizard^2, PerkinElmer) and a semimicro scale (Shimadzu Corporation, readability 10 μg), respectively. For comparison between accumulated amounts, accumulated amounts per unit amount (% ID/g) were calculated.
(§5) In Table 1, the amounts of the ^211At-labeled compounds accumulated in tumors of the PANC1 tumor-bearing models (% ID/g) are shown. It should be noted that in Table 1, “OMe” is ^211At-AAMT-OMe, “OEt” is ^211At-AAMT-OEt, “OPr” is ^211At-AAMT-OPr, and “OH” is ^211At-AAMT.

PANC1 tumor = test: as above; format: in vivo, human (PANC1) in Balb/c-nu/nu mice; settings: for accumulation in the tumor sites compared to 211At-AAMT: 10 minutes and 1 hour after administration, tail vein; for retention at tumor sites: compared to 211At-AAMT
Experimental: as §4, §5

[4] = system: human pancreatic cancer cell line (PANC1); format: in vivo, human (PANC1) in Balb/c-nu/nu mice; settings: 1 MBq/0.2 mL per mouse, tail vein
Source text: The experiment was terminated 21 days after administration.

PANC1 = test: Cellular uptake test (Using PANC1); format: cell-based, human; settings: for uptake speed: PANC1 cells, uptake level immediately after addition
Experimental: • Cells to be used: PANC1 • Culture medium to be used: D-MEM (containing 10% FBS, 1% P/S)
as §2, with “cells/mL in the same manner as in Test Example 1.” for “cells/mL.”
as §3, with “^211At-AAMT-OMe, ^211At-AAMT-OEt, ^211At-AAMT-OPr, or” for “^211At-AAMT-OMe or”, “of ^211At-AAMT-OMe, ^211At-AAMT-OEt, ^211-At-AAMT-OPr,” for “of ^211At-AAMT-OMe”

[5] = up to 21 days after administration

Chain of HEK293-hLAT1 (Q01650 whole entry): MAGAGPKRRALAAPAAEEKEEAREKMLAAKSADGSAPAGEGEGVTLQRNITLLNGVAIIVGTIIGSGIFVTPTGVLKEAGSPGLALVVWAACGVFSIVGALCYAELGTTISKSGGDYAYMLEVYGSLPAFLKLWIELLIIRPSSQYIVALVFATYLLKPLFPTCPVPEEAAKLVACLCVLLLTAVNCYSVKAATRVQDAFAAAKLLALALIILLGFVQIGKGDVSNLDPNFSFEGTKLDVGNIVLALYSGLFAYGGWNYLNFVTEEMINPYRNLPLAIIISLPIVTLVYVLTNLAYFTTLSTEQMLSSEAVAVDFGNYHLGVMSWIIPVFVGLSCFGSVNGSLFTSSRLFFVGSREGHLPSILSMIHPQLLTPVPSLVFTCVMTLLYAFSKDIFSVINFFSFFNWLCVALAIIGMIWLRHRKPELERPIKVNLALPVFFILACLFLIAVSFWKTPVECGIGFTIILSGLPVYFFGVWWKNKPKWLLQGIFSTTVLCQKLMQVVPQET
Chain of HEK293-hLAT1 (P08195 102-630 partner): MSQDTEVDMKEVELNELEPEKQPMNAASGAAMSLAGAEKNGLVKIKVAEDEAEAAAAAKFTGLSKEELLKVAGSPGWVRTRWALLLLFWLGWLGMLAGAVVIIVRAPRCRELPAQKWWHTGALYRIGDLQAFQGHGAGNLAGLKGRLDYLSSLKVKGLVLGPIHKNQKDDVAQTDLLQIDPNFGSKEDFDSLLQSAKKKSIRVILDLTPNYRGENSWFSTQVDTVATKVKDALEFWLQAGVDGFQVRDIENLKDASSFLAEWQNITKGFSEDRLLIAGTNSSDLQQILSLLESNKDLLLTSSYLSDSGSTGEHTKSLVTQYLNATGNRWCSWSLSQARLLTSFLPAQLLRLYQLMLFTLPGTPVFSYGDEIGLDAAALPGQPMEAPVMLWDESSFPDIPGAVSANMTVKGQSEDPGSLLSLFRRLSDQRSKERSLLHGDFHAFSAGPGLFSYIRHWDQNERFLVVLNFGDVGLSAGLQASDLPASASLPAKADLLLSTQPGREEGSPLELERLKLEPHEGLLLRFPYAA

## COc1ccc(C[C@@](C)(N)C(=O)O)cc1[At] [(R)-^211At-AAMT-OMe, (R)-3-astato(^211At)—O-methyl-α-methyltyrosine]
[1]
  decomposition by TLC: no decomposition

## C[C@](N)(Cc1ccc(O)cc1)C(=O)O [AMT, α-methyl tyrosine, reference compound]
HEK293-hLAT1
  inhibition of uptake of 211At-AAMT-OMe into HEK293-hLAT1 cells: significantly inhibited

## NC1(C(=O)O)CC2CCC1C2 (stereo not drawn) [BCH, 2-aminobicyclo[2,2,1]heptane-2-carboxylic acid, reference compound]
HEK293-hLAT1
  inhibition of uptake of 211At-AAMT-OMe into HEK293-hLAT1 cells: significantly inhibited

## [NH2][Pt]([NH2])([Cl])[Cl] [CDDP, Cisplatin]
[2]
  cell viability: still alive even at 100 μg/mL

## COc1cc(C[C@](C)(N)C(=O)O)ccc1[At] [^211At-AAMPhe-OMe, (S)-α-methyl-4-astato(^211At)-3-methoxyphenylalanine]
[3]
  tissue uptake at 10 min: 3.77 %ID/g
  tissue uptake at 1 h: 6.38 %ID/g
PANC1 tumor
  accumulation in the tumor sites compared to 211At-AAMT: more highly accumulated in the tumor sites than ^211At-AAMT
[1]
  decomposition by TLC: no decomposition

## CCOc1ccc(C[C@](C)(N)C(=O)O)cc1[At] [^211At-AAMT-OEt, (S)-3-astato(^211At)—O-ethyl-α-methyltyrosine]
[4]; 21 days
  apparent toxicity: apparent toxicity induced by their administration was not observed
  lesions other than tumor at autopsy: lesions other than tumor were not observed
[4]; [5]
  mouse body weight: gently increased
  tumor growth inhibiting effect: comparable to that of the ^211At-AAMT-OMe administration group
[3]
  tissue uptake at 10 min: 4.21 %ID/g
  tissue uptake at 1 h: 3.59 %ID/g
PANC1 tumor
  accumulation in the tumor sites compared to 211At-AAMT: more highly accumulated in the tumor sites than ^211At-AAMT
  retention at tumor sites: superior retention at tumor sites compared to ^211At-AAMT
[1]
  decomposition by TLC: no decomposition
PANC1
  uptake level into cells (number of radioactivity counts/protein amount): comparable or superior
  uptake speed: comparable or superior

## CCCOc1ccc(C[C@](C)(N)C(=O)O)cc1[At] [^211At-AAMT-OPr, (S)-3-astato(^211At)—O-propyl-α-methyltyrosine]
[3]
  tissue uptake at 10 min: 5.91 %ID/g
  tissue uptake at 1 h: 9.45 %ID/g
PANC1 tumor
  accumulation in the tumor sites compared to 211At-AAMT: more highly accumulated in the tumor sites than ^211At-AAMT
  retention at tumor sites: superior retention at tumor sites compared to ^211At-AAMT
PANC1 tumor; 1 hour after administration
  tumor accumulation, ranking: most highly accumulated 1 hour after administration
[1]
  decomposition by TLC: no decomposition
PANC1
  uptake level into cells (number of radioactivity counts/protein amount): comparable or superior
  uptake speed: comparable or superior

Reference: patent US20260337125A1, “RADIOLABELED TYROSINE DERIVATIVE AND APPLICATION THEREOF” (Osaka University, priority 2022, published 2026)
